Assay results: ChEMBL document CHEMBL5050845, “Enhancers of neurolysin activity” (2020)
The source made the active and inactive calls. The calls are words filed in the database; no cut-off is given here. Peptide text beside a SMILES is read from it. * marks the point of attachment. NHPhenethyl = c1ccc(CCN*)cc1; Boc = CC(C)(C)OC(=O)*

How the values were obtained:
Rattus norvegicus [1] = species on record: Rattus norvegicus; assay: Positive allosteric modulation of recombinant N-terminal poly-His tagged rat neurolysin using Mca-Pro-Leu- Gly-Pro-D-Lys(DNP)-OH as substrate assessed as Amax and measured by fluorescence based assay relative to control
Rattus norvegicus [2] = species on record: Rattus norvegicus; assay: Positive allosteric modulation of recombinant N-terminal poly-His tagged rat neurolysin using Mca-Pro-Leu- Gly-Pro-D-Lys(DNP)-OH as substrate and measured by fluorescence based assay
Rattus norvegicus [3] = species on record: Rattus norvegicus; assay: Positive allosteric modulation of catalytic activity of recombinant N-terminal poly-His tagged rat neurolysin using Mca-Pro-Leu- Gly-Pro-D-Lys(DNP)-OH as substrate and measured by fluorescence based assay relative to control; details: filed as positive allosteric modulator
Rattus norvegicus [4] = species on record: Rattus norvegicus; assay: Positive allosteric modulation of catalytic activity of recombinant N-terminal poly-His tagged rat neurolysin using Mca-Pro-Leu- Gly-Pro-D-Lys(DNP)-OH as substrate in presence of 1 uM dynoprhin A (1 to 13) and measured by fluorescence based assay relative to control; details: filed as positive allosteric modulator
Rattus norvegicus [5] = species on record: Rattus norvegicus; assay: Positive allosteric modulation of catalytic activity of recombinant N-terminal poly-His tagged rat neurolysin at 40 uM assessed as Vmax as fluorescent unit/ng protein and measured fluorescence assay; details: filed as positive allosteric modulator
Rattus norvegicus [6] = species on record: Rattus norvegicus; assay: Positive allosteric modulation of catalytic activity of recombinant N-terminal poly-His tagged rat neurolysin at 100 uM assessed as Vmax as fluorescent unit/ng protein measured fluorescence assay; details: filed as positive allosteric modulator
Rattus norvegicus [7] = species on record: Rattus norvegicus; assay: Positive allosteric modulation of catalytic activity of recombinant N-terminal poly-His tagged rat neurolysin at 40 uM assessed as Km measured fluorescence assay; details: filed as positive allosteric modulator
Rattus norvegicus [8] = species on record: Rattus norvegicus; assay: Positive allosteric modulation of catalytic activity of recombinant N-terminal poly-His tagged rat neurolysin at 100 uM assessed as Km measured fluorescence assay; details: filed as positive allosteric modulator
Homo sapiens [9] = species on record: Homo sapiens; assay: Positive allosteric modulation of recombinant N-terminal Met and His-tagged human neurolysin using Mca-Pro-Leu- Gly-Pro-D-Lys(DNP)-OH as substrate and measured by fluorescence based assay relative to control; details: filed as positive allosteric modulator
Mus musculus = species on record: Mus musculus; assay: Positive allosteric modulation of neurolysin in mouse brain using Mca-Pro-Leu- Gly-Pro-D-Lys(DNP)-OH as substrate and measured by fluorescence based assay relative to control; format: tissue-based; details: filed as positive allosteric modulator
Homo sapiens [10] = species on record: Homo sapiens; assay: Inhibition of recombinant N-terminal Met and His-tagged human Thimet oligopeptidase at 300 uM using Mca-Pro-Leu-Gly-Pro-D-Lys(DNP)-OH as substrate and measured by fluorescence based assay relative to control
[11] = biological target: Angiotensin-converting enzyme 2 (Homo sapiens) (UniProt Q9BYF1); assay: Inhibition of recombinant N-terminal Met and His-tagged human ACE2 at 300 uM using Mca-Ala-Pro-Lys-(Dnp)-OH as substrate and measured by fluorescence based assay relative to control
[12] = biological target: Angiotensin-converting enzyme (Homo sapiens) (UniProt P12821); assay: Inhibition of recombinant C-terminal 10His-tagged human ACE at 300 uM using Mca-Arg-Pro-Pro-Gly-Phe-Ser-Ala-Phe-Lys(Dnp)-OH as substrate and measured by fluorescence based assay relative to control
[13] = biological target: Neprilysin (Homo sapiens) (UniProt P08473); assay: Inhibition of recombinant N-terminal 6His-tagged human neprilysin expressed in CHO cells at 300 uM using Mca-Arg-Pro-Pro-Gly-Phe-Ser-Ala-Phe-Lys(Dnp)-OH as substrate and measured by fluorescence based assay relative to control
Rattus norvegicus [14] = species on record: Rattus norvegicus; assay: Positive allosteric modulation of recombinant N-terminal poly-His tagged rat neurolysin at 100 uM assessed fold increase in formation of angiotensin (1 to 7) from angiotensin I and measured by mass spectrometry analysis; details: filed as positive allosteric modulator
Rattus norvegicus [15] = species on record: Rattus norvegicus; assay: Positive allosteric modulation of recombinant N-terminal poly-His tagged rat neurolysin at 100 uM assessed fold increase in formation of bradykinin (1 to 5) from bradykinin and measured by mass spectrometry analysis; details: filed as positive allosteric modulator
Rattus norvegicus [16] = species on record: Rattus norvegicus; assay: Positive allosteric modulation of recombinant N-terminal poly-His tagged rat neurolysin at 100 uM assessed fold increase in formation of neurotensin (1 to 10) from neurotensin and measured by mass spectrometry analysis; details: filed as positive allosteric modulator
Rattus norvegicus [17] = species on record: Rattus norvegicus; assay: Positive allosteric modulation of catalytic activity of recombinant N-terminal poly-His tagged rat neurolysin assessed as effect on fluorescence signal of Mca-Pro-Leu-OH and measured fluorescence assay
[18] = Inhibition of recombinant N-terminal poly-His tagged rat neurolysin using Mca-Pro-Leu- Gly-Pro-D-Lys(DNP)-OH as substrate in presence of 100 uM NSC 374121 and measured by fluorescence based assay relative to control
[19] = Inhibition of recombinant N-terminal poly-His tagged rat neurolysin using Mca-Pro-Leu- Gly-Pro-D-Lys(DNP)-OH as substrate in presence of 100 uM NSC 523374 and measured by fluorescence based assay relative to control
[20] = filed as positive allosteric modulator

Sequence of Angiotensin-converting enzyme (Homo sapiens) (P12821 whole entry): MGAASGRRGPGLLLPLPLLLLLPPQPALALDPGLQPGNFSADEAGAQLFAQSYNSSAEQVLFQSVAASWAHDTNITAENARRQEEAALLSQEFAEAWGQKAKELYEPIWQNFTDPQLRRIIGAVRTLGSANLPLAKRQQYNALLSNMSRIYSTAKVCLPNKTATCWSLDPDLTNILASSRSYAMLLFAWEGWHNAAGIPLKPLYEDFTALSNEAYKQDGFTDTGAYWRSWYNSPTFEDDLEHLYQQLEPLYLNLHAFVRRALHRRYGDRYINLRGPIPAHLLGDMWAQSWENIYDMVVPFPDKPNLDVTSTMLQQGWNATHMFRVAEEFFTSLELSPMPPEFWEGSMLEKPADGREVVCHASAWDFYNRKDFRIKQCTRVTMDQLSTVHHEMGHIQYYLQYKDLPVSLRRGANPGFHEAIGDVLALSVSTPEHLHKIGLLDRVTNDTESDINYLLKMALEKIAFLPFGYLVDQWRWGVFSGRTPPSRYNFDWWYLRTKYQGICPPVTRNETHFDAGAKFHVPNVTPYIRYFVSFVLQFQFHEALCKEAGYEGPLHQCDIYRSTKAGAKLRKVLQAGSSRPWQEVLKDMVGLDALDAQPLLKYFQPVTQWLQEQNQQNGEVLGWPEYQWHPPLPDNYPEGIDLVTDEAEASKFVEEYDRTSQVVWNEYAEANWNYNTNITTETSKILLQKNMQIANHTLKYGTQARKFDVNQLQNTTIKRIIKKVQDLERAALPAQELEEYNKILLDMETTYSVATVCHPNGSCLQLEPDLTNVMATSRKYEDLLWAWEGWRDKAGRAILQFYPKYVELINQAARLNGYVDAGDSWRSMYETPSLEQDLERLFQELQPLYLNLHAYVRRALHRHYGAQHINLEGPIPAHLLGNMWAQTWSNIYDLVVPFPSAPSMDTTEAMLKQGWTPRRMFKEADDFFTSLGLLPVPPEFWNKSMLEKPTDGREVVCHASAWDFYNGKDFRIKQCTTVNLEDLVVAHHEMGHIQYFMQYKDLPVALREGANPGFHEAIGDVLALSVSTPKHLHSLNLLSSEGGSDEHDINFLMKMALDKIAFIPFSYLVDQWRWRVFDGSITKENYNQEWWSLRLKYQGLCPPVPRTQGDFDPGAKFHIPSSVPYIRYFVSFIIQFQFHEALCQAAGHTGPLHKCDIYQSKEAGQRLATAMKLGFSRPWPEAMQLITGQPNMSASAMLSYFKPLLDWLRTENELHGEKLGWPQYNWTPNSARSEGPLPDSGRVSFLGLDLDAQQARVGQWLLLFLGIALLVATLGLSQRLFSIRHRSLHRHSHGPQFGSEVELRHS
Sequence of Angiotensin-converting enzyme 2 (Homo sapiens) (Q9BYF1 18-805 limits assumed): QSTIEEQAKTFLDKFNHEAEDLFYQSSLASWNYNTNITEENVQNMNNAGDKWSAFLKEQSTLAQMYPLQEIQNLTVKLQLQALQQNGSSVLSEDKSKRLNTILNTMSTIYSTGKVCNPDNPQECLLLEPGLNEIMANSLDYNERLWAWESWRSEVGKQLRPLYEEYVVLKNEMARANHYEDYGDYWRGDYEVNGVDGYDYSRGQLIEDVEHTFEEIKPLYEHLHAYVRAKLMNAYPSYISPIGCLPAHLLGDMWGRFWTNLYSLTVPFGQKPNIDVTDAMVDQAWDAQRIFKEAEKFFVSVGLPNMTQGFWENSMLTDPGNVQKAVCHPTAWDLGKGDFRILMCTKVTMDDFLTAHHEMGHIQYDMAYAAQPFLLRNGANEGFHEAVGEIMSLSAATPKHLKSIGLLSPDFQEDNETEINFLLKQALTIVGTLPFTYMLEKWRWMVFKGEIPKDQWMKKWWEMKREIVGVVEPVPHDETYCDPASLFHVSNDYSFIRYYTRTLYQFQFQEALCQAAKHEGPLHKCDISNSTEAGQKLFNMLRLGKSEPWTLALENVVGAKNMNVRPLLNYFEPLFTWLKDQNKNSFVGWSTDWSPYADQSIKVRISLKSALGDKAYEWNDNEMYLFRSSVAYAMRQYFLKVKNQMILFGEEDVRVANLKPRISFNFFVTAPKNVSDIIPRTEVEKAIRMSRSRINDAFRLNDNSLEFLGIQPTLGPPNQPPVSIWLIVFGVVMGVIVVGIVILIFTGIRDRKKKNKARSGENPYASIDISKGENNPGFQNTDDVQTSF
Sequence of Neprilysin (Homo sapiens) (P08473 whole entry): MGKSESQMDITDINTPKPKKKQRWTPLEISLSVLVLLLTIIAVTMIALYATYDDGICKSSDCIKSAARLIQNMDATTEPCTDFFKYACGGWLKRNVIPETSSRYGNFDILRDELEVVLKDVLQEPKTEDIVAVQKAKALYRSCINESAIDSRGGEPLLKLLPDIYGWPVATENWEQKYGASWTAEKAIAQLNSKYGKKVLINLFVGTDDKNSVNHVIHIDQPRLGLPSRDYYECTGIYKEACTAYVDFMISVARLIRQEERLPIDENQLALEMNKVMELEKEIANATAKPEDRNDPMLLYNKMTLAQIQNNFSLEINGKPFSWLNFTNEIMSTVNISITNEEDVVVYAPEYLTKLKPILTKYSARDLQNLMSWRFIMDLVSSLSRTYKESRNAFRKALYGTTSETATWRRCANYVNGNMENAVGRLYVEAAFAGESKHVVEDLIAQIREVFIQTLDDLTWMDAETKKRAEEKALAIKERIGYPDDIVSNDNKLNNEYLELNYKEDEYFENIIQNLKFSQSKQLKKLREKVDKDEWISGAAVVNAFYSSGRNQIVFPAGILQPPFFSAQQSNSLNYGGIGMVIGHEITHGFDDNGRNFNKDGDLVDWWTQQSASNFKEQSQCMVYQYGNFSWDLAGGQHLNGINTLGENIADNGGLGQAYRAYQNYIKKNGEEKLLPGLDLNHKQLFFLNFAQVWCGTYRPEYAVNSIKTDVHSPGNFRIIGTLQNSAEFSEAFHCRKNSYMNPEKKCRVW

N[C@@H](Cc1c[nH]cn1)C(=O)NCc1ccccc1
Emax (Rattus norvegicus [1]; [20]): 152%

NC(Cc1c[nH]cn1)C(=O)NCCc1cc2ccccc2[nH]1 (racemic)
Emax (Rattus norvegicus [1]; [20]): 311%

CC(C)(C)OC(=O)N[C@@H](Cc1c[nH]cn1)C(=O)NCCc1cc2ccccc2[nH]1
A50 (Rattus norvegicus [2]): inactive
Emax (Rattus norvegicus [1]): inactive

N[C@@H](Cc1c[nH]cn1)C(=O)NCc1cccc(C(F)(F)F)c1
Emax (Rattus norvegicus [1]; [20]): 494%

N[C@H](Cc1c[nH]cn1)C(=O)NCCc1ccc(C(F)(F)F)cc1
Emax (Rattus norvegicus [1]; [20]): 643%

N[C@@H](Cc1c[nH]cn1)C(=O)NCc1ccc2ccccc2c1
A50 (Rattus norvegicus [2]; [20]): 12.3 µM
Emax (Rattus norvegicus [1]; [20]): 262%

NC(Cc1c[nH]cn1)C(=O)NC(Cc1ccc(O)cc1)C(=O)O (stereo not drawn) (H-His-Tyr-OH; configuration not given here)
Emax (Rattus norvegicus [3]): 235%
Emax (Rattus norvegicus [4]): 238%
Vmax (Rattus norvegicus [5]): 124 min⁻¹
Vmax (Rattus norvegicus [6]): 165 min⁻¹
Km (Rattus norvegicus [7]): 7.9 µM
Km (Rattus norvegicus [8]): 6.4 µM
Emax (Homo sapiens [9]): 204%
Emax (Mus musculus): 190%
inhibition (Homo sapiens [10]): 25.9%
inhibition [11]: 13.4%
inhibition [12]: 22.6%
inhibition [13]: 2.9%
fold change (FC) (Rattus norvegicus [14]): 6
fold change (FC) (Rattus norvegicus [15]): 2
fold change (FC) (Rattus norvegicus [16]): 3
Activity (Rattus norvegicus [17]): inactive

N[C@@H](Cc1c[nH]cn1)C(=O)NCCc1ccc(C(F)(F)F)cc1
Emax (Rattus norvegicus [1]; [20]): 438%

CC(C)(C)OC(=O)N[C@@H](Cc1c[nH]cn1)C(=O)NCCc1c[nH]c2ccccc12
A50 (Rattus norvegicus [2]): inactive
Emax (Rattus norvegicus [1]): inactive

O=C(CCc1cnc[nH]1)NCCc1c[nH]c2ccccc12
A50 (Rattus norvegicus [2]): inactive
Emax (Rattus norvegicus [1]): inactive

N[C@@H](Cc1cnc[nH]1)C(=O)N[C@@H](Cc1ccccc1)C(=O)O (H-His-Phe-OH)
A50 (Rattus norvegicus [2]; [20]): 130 µM
Emax (Rattus norvegicus [1]; [20]): 573%

O=C1NC(Cc2c[nH]cn2)C(=O)N2CCCC12 (stereo not drawn)
A50 (Rattus norvegicus [2]): inactive
Emax (Rattus norvegicus [1]): inactive

COc1cccc(CNC(=O)[C@H](N)Cc2cnc[nH]2)c1
Emax (Rattus norvegicus [1]; [20]): 477%

COc1ccc(CNC(=O)[C@H](N)Cc2cnc[nH]2)cc1
Emax (Rattus norvegicus [1]; [20]): 704%

N[C@H](Cc1c[nH]cn1)C(=O)NCCc1ccccc1
Emax (Rattus norvegicus [1]; [20]): 407%

N[C@H](Cc1c[nH]cn1)C(=O)NCc1ccc(C(F)(F)F)cc1
Emax (Rattus norvegicus [1]; [20]): 599%

N[C@@H](Cc1c[nH]cn1)C(=O)NCc1cccc2ccccc12
Emax (Rattus norvegicus [1]; [20]): 264%

N[C@@H](Cc1c[nH]cn1)C(=O)NCc1ccc(F)cc1
Emax (Rattus norvegicus [1]; [20]): 252%

NC(Cc1c[nH]cn1)C(=O)NC(Cc1c[nH]cn1)C(=O)O (stereo not drawn)
Emax (Rattus norvegicus [3]): 203%
Emax (Rattus norvegicus [4]): 198%
Vmax (Rattus norvegicus [5]): 112 min⁻¹
Vmax (Rattus norvegicus [6]): 148 min⁻¹
Km (Rattus norvegicus [7]): 8 µM
Km (Rattus norvegicus [8]): 6.1 µM
Emax (Homo sapiens [9]): 214%
Emax (Mus musculus): 258%
inhibition (Homo sapiens [10]): 15.6%
inhibition [11]: 10.9%
inhibition [12]: 12.2%
inhibition [13]: 1.6%
Activity (Rattus norvegicus [17]): inactive

N[C@@H](Cc1c[nH]cn1)C(=O)Nc1ccccc1
A50 (Rattus norvegicus [2]; [20]): 7.74 µM
Emax (Rattus norvegicus [1]; [20]): 140%

N[C@@H](Cc1ccccn1)C(=O)NCCc1ccccc1
A50 (Rattus norvegicus [2]): inactive
Emax (Rattus norvegicus [1]): inactive

N[C@@H](Cc1c[nH]cn1)C(=O)NCc1ccccc1C(F)(F)F
Emax (Rattus norvegicus [1]; [20]): 334%

N[C@H](Cc1cnc[nH]1)C(=O)NCc1cccc(C(F)(F)F)c1
Emax (Rattus norvegicus [1]; [20]): 184%

N[C@@H](Cc1c[nH]cn1)C(=O)NCCc1cc2ccccc2[nH]1
Emax (Rattus norvegicus [1]; [20]): 259%

N[C@@H](Cc1c[nH]cn1)C(=O)NCCc1ccc(F)cc1
A50 (Rattus norvegicus [2]; [20]): 27.9 µM
Emax (Rattus norvegicus [1]; [20]): 323%

COc1cccc(CCNC(=O)[C@H](N)Cc2c[nH]cn2)c1
Emax (Rattus norvegicus [1]; [20]): 255%

CC[C@H](C)[C@H](NC(=O)[C@H](CCCNC(=N)N)NC(=O)[C@H](CCCNC(=N)N)NC(=O)[C@H](CC(C)C)NC(=O)[C@H](Cc1ccccc1)NC(=O)CNC(=O)CNC(=O)[C@@H](N)Cc1ccc(O)cc1)C(=O)N[C@@H](CCCNC(=N)N)C(=O)N1CCC[C@H]1C(=O)N[C@@H](CCCCN)C(=O)N[C@@H](CC(C)C)C(=O)N[C@@H](CCCCN)C(=O)O [ANALOG OF DYNORPHIN A]
Ki [18]: 0.7 µM
Ki [19]: 0.6 µM

N[C@@H](Cc1c[nH]cn1)C(=O)NCCc1ccc2ccccc2c1
Emax (Rattus norvegicus [1]; [20]): 324%

N[C@@H](Cc1c[nH]cn1)C(=O)N[C@@H](Cc1ccccc1)C(=O)NCCc1ccccc1 (H-His-Phe-NHPhenethyl)
A50 (Rattus norvegicus [2]; [20]): 5.4 µM
Emax (Rattus norvegicus [1]; [20]): 178%

N[C@H](Cc1c[nH]cn1)C(=O)NCCc1cc2ccccc2[nH]1
Emax (Rattus norvegicus [1]; [20]): 132%

CC(C)(C)OC(=O)N[C@@H](Cc1c[nH]cn1)C(=O)N[C@@H](Cc1ccccc1)C(=O)O (Boc-His-Phe-OH)
A50 (Rattus norvegicus [2]): inactive
Emax (Rattus norvegicus [1]): inactive

N[C@@H](Cc1c[nH]cn1)C(=O)N[C@H](Cc1cc2ccccc2[nH]1)C(=O)O
Emax (Rattus norvegicus [1]; [20]): 440%

COc1ccccc1CNC(=O)[C@H](N)Cc1c[nH]cn1
Emax (Rattus norvegicus [1]; [20]): 325%

COc1ccc(CCNC(=O)[C@@H](N)Cc2c[nH]cn2)cc1
Emax (Rattus norvegicus [1]; [20]): 544%

N[C@@H](Cc1c[nH]cn1)C(=O)N1CCCC1
Emax (Rattus norvegicus [1]; [20]): 173%

COc1ccc(CNC(=O)[C@@H](N)Cc2c[nH]cn2)cc1
Emax (Rattus norvegicus [1]; [20]): 429%

N[C@H](Cc1c[nH]cn1)C(=O)NCc1cccc2ccccc12
Emax (Rattus norvegicus [1]; [20]): 343%

N[C@@H](Cc1cnc[nH]1)C(=O)N[C@@H](Cc1ccc(O)cc1)C(=O)O (H-His-Tyr-OH)
Emax (Rattus norvegicus [1]; [20]): 467%

N[C@H](Cc1c[nH]cn1)C(=O)NCCc1ccc2ccccc2c1
Emax (Rattus norvegicus [1]; [20]): 340%

N[C@@H](Cc1c[nH]cn1)C(=O)NCc1ccc(C(F)(F)F)cc1
Emax (Rattus norvegicus [1]; [20]): 305%

N[C@H](Cc1c[nH]cn1)C(=O)NCCc1ccccc1C(F)(F)F
Emax (Rattus norvegicus [1]; [20]): 396%

N[C@@H](Cc1c[nH]cn1)C(=O)NCCc1ccccc1
Emax (Rattus norvegicus [1]; [20]): 231%

CC(C)(C)OC(=O)N[C@@H](Cc1c[nH]cn1)C(=O)NCCc1ccccc1
A50 (Rattus norvegicus [2]): inactive
Emax (Rattus norvegicus [1]): inactive
